Experimental data from US20210395313A1, “PEPTIDE PAC1 ANTAGONISTS” (AMGEN INC., priority 2017, published 2021).
Bridges are numbered along the chain shown (N, C = ends). Where no end group is shown, it is not given here. [ ]: non-standard residue; d: D form. Pra = C#CC[C@H](N)C(=O)O

Key:
human PAC1 receptor = target: T1, human PAC1 receptor (Homo sapiens, UniProt P41586); test: LANCE Ultra cAMP accumulation antagonist assay in SHSY-5Y cells; assay type: cell-based;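 also: inhibition of cAMP accumulation evoked by PAC1 agonist at its EC80 in SHSY-5Y cells endogenously expressing receptor, 30 min preincubation then 15 min agonist, TR-FRET readout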
T1 construct: SHSY-5Y (human neuroblastoma cell line) and RG-2 (rat glioma cell line) cells endogenously express human and rat PAC1 receptors, respectively; endogenous in cells; host or cells: SHSY-5Y human neuroblastoma cells
T1 sequence (P41586 21-468): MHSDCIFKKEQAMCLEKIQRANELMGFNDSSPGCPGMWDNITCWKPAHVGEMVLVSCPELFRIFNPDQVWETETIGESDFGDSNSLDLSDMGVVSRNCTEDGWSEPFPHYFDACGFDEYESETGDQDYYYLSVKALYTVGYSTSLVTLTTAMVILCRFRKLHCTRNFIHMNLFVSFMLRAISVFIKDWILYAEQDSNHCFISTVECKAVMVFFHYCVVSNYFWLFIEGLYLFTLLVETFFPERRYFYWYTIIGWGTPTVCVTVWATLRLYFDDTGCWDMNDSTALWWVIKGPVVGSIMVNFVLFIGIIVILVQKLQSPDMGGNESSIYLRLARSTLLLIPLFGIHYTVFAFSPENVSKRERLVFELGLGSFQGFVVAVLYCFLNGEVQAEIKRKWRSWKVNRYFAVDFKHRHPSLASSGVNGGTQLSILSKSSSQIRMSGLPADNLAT

rat PAC1 receptor = target: T2, rat PAC1 receptor (Rattus norvegicus, UniProt P32215); test: LANCE Ultra cAMP accumulation antagonist assay in RG-2 cells; assay type: cell-based;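 also: RG-2 rat glioma cells endogenously expressing PAC1, test peptide preincubated 30 min, then PAC1 agonist added at its EC80 for 15 min, cAMP accumulation read by LANCE Ultra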
T2 construct: SHSY-5Y (human neuroblastoma cell line) and RG-2 (rat glioma cell line) cells endogenously express human and rat PAC1 receptors, respectively; endogenous in cells; host or cells: RG-2 rat glioma cells
T2 sequence (P32215 20-523): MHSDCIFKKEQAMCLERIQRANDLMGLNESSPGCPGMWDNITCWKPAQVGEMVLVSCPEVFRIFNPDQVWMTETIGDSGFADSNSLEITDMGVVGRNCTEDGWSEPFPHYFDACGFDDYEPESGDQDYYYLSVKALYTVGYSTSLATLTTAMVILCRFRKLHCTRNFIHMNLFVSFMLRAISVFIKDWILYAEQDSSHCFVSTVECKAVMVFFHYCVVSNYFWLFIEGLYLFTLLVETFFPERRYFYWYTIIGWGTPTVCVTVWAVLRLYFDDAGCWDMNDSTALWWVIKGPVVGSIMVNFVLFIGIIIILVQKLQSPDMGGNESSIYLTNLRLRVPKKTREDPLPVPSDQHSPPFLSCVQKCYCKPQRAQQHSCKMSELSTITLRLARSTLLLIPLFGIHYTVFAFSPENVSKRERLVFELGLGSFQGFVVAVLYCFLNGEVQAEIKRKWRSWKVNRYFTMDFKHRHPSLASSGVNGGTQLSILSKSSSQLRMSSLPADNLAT

Row | Substance | IC50 (human PAC1 receptor) | IC50 (rat PAC1 receptor)
1 | CDATCQFRKAIDDCQKQAHHSNVPGSVFKACMKQKKKEFKAGW (disulfide 1-5, 14-31) [compound 145] | 0.01 to 1 nM | 0.01 to 1 nM
2 | CDATCQFRKAIDDCQKQAHHSNVPGSVFKACMKQKKKEFKAH (disulfide 1-5, 14-31) [compound 153] | 1 to 100 nM | 0.01 to 1 nM
3 | CDATCQFRKAIDDCQKQAHHSNVPGSVFKACMKQKKKEFKAQ (disulfide 1-5, 14-31) [compound 96] | 1 to 100 nM | 0.01 to 1 nM
4 | CDATCQFRKAIDDCQKQAHHSNVPGSVFKACMKQKKKEFKAR (disulfide 1-5, 14-31) [compound 68] | 0.01 to 1 nM | 0.01 to 1 nM
5 | CDATCQFRKAIDDCQKQAHHSNVPGSVFKACMKQKKKEFKAW (disulfide 1-5, 14-31) [compound 95] | 1 to 100 nM | 1 to 100 nM
6 | CDATCQFRKAIDDCQKQAHHSNVPGSVFKACMKQRKKRWLAG-NH2 (disulfide 1-5, 14-31) [compound 126] | 0.01 to 1 nM | 0.01 to 1 nM
7 | CDATCQFRKAIDDCQKQAHHSNVPGSVFKACMLQKKKEFKAG-NH2 (disulfide 1-5, 14-31) [compound 103] | 1 to 100 nM | 0.01 to 1 nM
8 | CDATCQFRKAIDDCQKQAHHSNVPGSVFKACMVQKKKEFKAG-NH2 (disulfide 1-5, 14-31) [compound 102] | 1 to 100 nM | 0.01 to 1 nM
9 | CDATCQFRKAIDDCQKQAHHSNVPGSVFKACVKQKKKEFKAG-NH2 (disulfide 1-5, 14-31) [compound 142] | 1 to 100 nM | 1 to 100 nM
10 | CDATCQFRKAIDDCQKQAHHSNVPGSVFKACVLQKKKEFKAG-NH2 (disulfide 1-5, 14-31) [compound 93] | 1 to 100 nM | 1 to 100 nM
11 | CDATCQFRKAIDDCQKQAHHSNVPGSVFKLCMKQKKKEFKAG-NH2 (disulfide 1-5, 14-31) [compound 226] | 0.01 to 1 nM | 0.01 to 1 nM
12 | CDATCQFRKAIDDCQKQAHHSNVPGSVFKTCMKQKKKEFKAG-NH2 (disulfide 1-5, 14-31) [compound 146] | 0.01 to 1 nM | 0.01 to 1 nM
13 | CDATCQFRKAIDDCQKQAHHSNVPGSVFKVCMKQKKKEFKAG-NH2 (disulfide 1-5, 14-31) [compound 211] | 1 to 100 nM | 0.01 to 1 nM
14 | CDATCQFRKAIDDCQKQAYHSNVPGNSVFKECMKQKKKEFK-NH2 (disulfide 1-5, 14-32) [compound 306] | 1 to 100 nM | 1 to 100 nM
15 | CDATCQFRKAIDDCQRQAHHSNVPGNSVFKECMKQKKKEFK-NH2 (disulfide 1-5, 14-32) [compound 288] | 1 to 100 nM | 1 to 100 nM
16 | CDATCQFRKAIDDCQ[Pra]QAHHSNVPGSVFKACMKQKKKEFKAG-NH2 (disulfide 1-5, 14-31) [compound 33] | 1 to 100 nM | 0.01 to 1 nM
17 | CDATCQFRKAIDDCSWFAIHSNVPGSVFKACMKQKKKEFKAG-NH2 (disulfide 1-5, 14-31) [compound 115] | 0.01 to 1 nM | 0.01 to 1 nM
18 | CDATCQFRKAIDDCVFWAAHSNVPGSVFKACMKQKKKEFKAG-NH2 (disulfide 1-5, 14-31) [compound 136] | 0.01 to 1 nM | 0.01 to 1 nM
19 | CDATCQFRKAIDDCVKQAHHSNVPGSVFKACMKQKKKEFKAGH (disulfide 1-5, 14-31) [SEQ ID NO 94] | 0.01 to 1 nM | 0.01 to 1 nM
20 | CDATCQFRKAIDDCVKQAHHSNVPGSVFKACMKQKKKEFKAGY (disulfide 1-5, 14-31) [compound 48] | 0.01 to 1 nM | 0.01 to 1 nM
21 | CDATCQFRKAIDDCVRQAHHSNVPGSVFKACMKQKKKEWKAG (disulfide 1-5, 14-31) [compound 82] | 0.01 to 1 nM | 0.01 to 1 nM
22 | CDATCQFRKAIDDCVRQAHHSNVPGSVFKACMKQKKKEWKAG-NH2 (disulfide 1-5, 14-31) [compound 79] | 0.01 to 1 nM | < 0.01 nM
23 | CDATCQFRKAIDDCVRQAHHSNVPGSVFKACMKQKKKEWKAGH (disulfide 1-5, 14-31) [SEQ ID NO 156] | 0.01 to 1 nM | 0.01 to 1 nM
24 | CDATCQFRKAIDDCVRQAHHSNVPGSVFKACMKQKKKEWKAGY (disulfide 1-5, 14-31) [SEQ ID NO 86] | 0.01 to 1 nM | 0.01 to 1 nM
25 | CDATCQFRKAIDDCVRQAHHSNVPGSVFKACMKQKKKEWKAH (disulfide 1-5, 14-31) [compound 99] | 0.01 to 1 nM | 0.01 to 1 nM

Row | Substance | IC50 (human PAC1 receptor) | IC50 (rat PAC1 receptor)
26 | CDATCQFRKAIDDCVRQAHHSNVPGSVFKACMKQKKKEWKAN (disulfide 1-5, 14-31) [compound 87] | 0.01 to 1 nM | 0.01 to 1 nM
27 | CDATCQFRKAIDDCVRQAHHSNVPGSVWKACMKQKKKEWKAGH (disulfide 1-5, 14-31) [compound 106] | 0.01 to 1 nM | 0.01 to 1 nM
28 | CDATCQFRKAIDDCVRQAYHSNVPGSVFKACMKQKKKEWKAGH (disulfide 1-5, 14-31) [compound 84] | 0.01 to 1 nM | 0.01 to 1 nM
29 | CDATCQFRKAIDDCVWFAWHSNVPGSVFKACMKQKKKEFKAG-NH2 (disulfide 1-5, 14-31) [compound 148] | 0.01 to 1 nM | 0.01 to 1 nM
30 | CDATCQFRKAIDDCVWKAFHANVPGSVFKACMKQKKKEFKAG-NH2 (disulfide 1-5, 14-31) [compound 118] | 0.01 to 1 nM | 0.01 to 1 nM
31 | CDATCQFRKAIDDCVWYSMHSNVPGSVFKACMKQKKKEFKAG-NH2 (disulfide 1-5, 14-31) [compound 133] | 0.01 to 1 nM | 0.01 to 1 nM
32 | CDATCQFRKAIDDCVYSAWHANVPGSVFKACMKQKKKEFKAG-NH2 (disulfide 1-5, 14-31) [compound 137] | 0.01 to 1 nM | 0.01 to 1 nM
33 | CDATCQFRKAIDDCVYSAWHSNVPGSVFKACMKQKKKEFKAG-NH2 (disulfide 1-5, 14-31) [compound 83] | 0.01 to 1 nM | 0.01 to 1 nM
34 | CDATCQFRKAIDDCWIVAWHANVPGSVFKACMKQKKKEFKAG-NH2 (disulfide 1-5, 14-31) [compound 129] | 0.01 to 1 nM | 0.01 to 1 nM
35 | CDATCQFRKAIDDCWIVAWHSNVPGSVFKACMKQKKKEFKAG-NH2 (disulfide 1-5, 14-31) [compound 73] | 0.01 to 1 nM | 0.01 to 1 nM
36 | CDATCQFRKAIDDCWKQAHHSNVPGSVFKACMKQKKKEFKAG-NH2 (disulfide 1-5, 14-31) [compound 80] | 0.01 to 1 nM | < 0.01 nM
37 | CDATCQFRKAIDDCWMLSWHANVPGSVFKACMKQKKKEFKAG-NH2 (disulfide 1-5, 14-31) [compound 92] | 0.01 to 1 nM | 0.01 to 1 nM
38 | CDATCQFRKAIDDCWMLSWHANVPGSVFKACMKQKKKEFKAGH (disulfide 1-5, 14-31) [compound 111] | 0.01 to 1 nM | 0.01 to 1 nM
39 | CDATCQFRKAIDDCWVIAWHSNVPGSVFKACMKQKKKEFKAG-NH2 (disulfide 1-5, 14-31) [compound 130] | 0.01 to 1 nM | < 0.01 nM
40 | CDATCQFRKAIDDCWVQAWHSNVPGSVFKACMKQKKKEFKAG-NH2 (disulfide 1-5, 14-31) [compound 134] | 0.01 to 1 nM | 0.01 to 1 nM
41 | CDATCQFRKAIDDCYKQAHHSNVPGSVFKACMKQKKKEFKAGH (disulfide 1-5, 14-31) [compound 47] | 0.01 to 1 nM | 0.01 to 1 nM
42 | CDATCQFRKAIDDCYWIAMHSNVPGSVWKACMKQKKKEFKAG-NH2 (disulfide 1-5, 14-31) [compound 147] | 0.01 to 1 nM | 0.01 to 1 nM
43 | CDATCQFRKAIDDCYWQAIHANVPGSVWKACMKFRFNVWKAG-NH2 (disulfide 1-5, 14-31) [compound 54] | 1 to 100 nM | 0.01 to 1 nM
44 | CDATCQFRKAIDDCYWQAIHANVPGSVWKACMKQKKKEFKAG-NH2 (disulfide 1-5, 14-31) [compound 138] | 0.01 to 1 nM | 0.01 to 1 nM
45 | CDATCQFRKAIDDCYYRAWHSNVPGSVFKACMKQKKKEFKAG-NH2 (disulfide 1-5, 14-31) [compound 104] | 0.01 to 1 nM | 0.01 to 1 nM
46 | CDATCQFRKAIDDCYYRSHHSNVPGSVFKACMKQKKKEFKAG-NH2 (disulfide 1-5, 14-31) [compound 45] | 0.01 to 1 nM | 0.01 to 1 nM
47 | CDATCQFRKAIDDCYYRSHSNVPGSVFKACMKQKKKEFKAG-NH2 (disulfide 1-5, 14-30) [compound 42] | 0.01 to 1 nM | 0.01 to 1 nM
48 | CDATCQFRKAIDDCYYRSKHSNVPGSVFKACMKQKKKEFKAG-NH2 (disulfide 1-5, 14-31) [compound 43] | 0.01 to 1 nM | < 0.01 nM
49 | CDATCQFRKAIDDCYYRSRHSNVPGSVFKACMKQKKKEFKAG-NH2 (disulfide 1-5, 14-31) [compound 44] | 0.01 to 1 nM | < 0.01 nM
